Measured values as given in ChEMBL document CHEMBL1201862, “PubChem BioAssay data set” (2004).
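Compound exposure: 48 hours, 5 concentrations, 96-well plates. Here, GI50 denotes the concentration required for 50% inhibition of growth.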 Calls of active or inactive are those of the source. Cut-off read from the data, not from the text of the source: active = GI50 up to about 1.1 µM and inactive = higher. Residues, ends and D or L forms follow the SMILES beside them. *: point of attachment. Boc = CC(C)(C)OC(=O)*; OBn = c1ccc(CO*)cc1; Bn = c1ccc(C*)cc1

Key:
Experiment in all cases: DTP human tumour cell line panel, 48 h
SF-539 = test system: SF-539
NCI-H460 = test system: NCI-H460
SF-295 = test system: SF-295
DU-145 = test system: DU-145
NCI-H23 = test system: NCI-H23
UO-31 = test system: UO-31
SW-620 = test system: SW-620
ACHN = test system: ACHN
IGROV-1 = test system: IGROV-1
A498 = test system: A498
OVCAR-4 = test system: OVCAR-4
786-0 = test system: 786-0
UACC-257 = test system: UACC-257
PC-3 = test system: PC-3
K562 = test system: K562
T47D = test system: T47D
TK-10 = test system: TK-10
MOLT-4 = test system: MOLT-4
MDA-MB-231 = test system: MDA-MB-231
SK-MEL-2 = test system: SK-MEL-2

| Compound | GI50 (SF-539) | GI50 (NCI-H460) | GI50 (SF-295) | GI50 (DU-145) | GI50 (NCI-H23) | GI50 (UO-31) | GI50 (SW-620) | GI50 (ACHN) | GI50 (IGROV-1) | GI50 (A498) | GI50 (OVCAR-4) | GI50 (786-0) | GI50 (UACC-257) | GI50 (PC-3) | GI50 (K562) | GI50 (T47D) | GI50 (TK-10) | GI50 (MOLT-4) | GI50 (MDA-MB-231) | GI50 (SK-MEL-2) |
| --- | --- | --- | --- | --- | --- | --- | --- | --- | --- | --- | --- | --- | --- | --- | --- | --- | --- | --- | --- | --- |
| COc1ccc([C@H]2CC(=O)C[C@H](c3ccc(OC)cc3)C23C(=O)c2ccccc2C3=O)cc1 | 5.04 µM (inactive) | 3.65 µM (inactive) | 3.95 µM (inactive) | 16.4 µM (inactive) | 26.1 µM (inactive) | 17.3 µM (inactive) | 3.53 µM (inactive) | 16.6 µM (inactive) | 5.28 µM (inactive) | > 100 µM (inactive) | 9.57 µM (inactive) | 5.57 µM (inactive) | 2.29 µM (inactive) | 4.21 µM (inactive) | 3.52 µM (inactive) | 4.31 µM (inactive) | 7.82 µM (inactive) | 4.79 µM (inactive) | 2.39 µM (inactive) | 3.3 µM (inactive) |
| O=c1oc2ccccc2c(O)c1C(C/C(CCN1CCCC1)=N/O)c1ccccc1 (stereo not given) | > 100 µM (inactive) | > 100 µM (inactive) | > 100 µM (inactive) | > 100 µM (inactive) | > 100 µM (inactive) | > 100 µM (inactive) | > 100 µM (inactive) | > 100 µM (inactive) | > 100 µM (inactive) | > 100 µM (inactive) | > 100 µM (inactive) | > 100 µM (inactive) | > 100 µM (inactive) | > 100 µM (inactive) | > 31.6 µM (inactive) | 7.87 µM (inactive) | > 100 µM (inactive) | > 48 µM (inactive) | > 100 µM (inactive) | > 100 µM (inactive) |
| CC(C(=O)O)/C(=C\c1ccc2c(c1)OCO2)C(=O)O (stereo not given) | > 100 µM (inactive) | > 100 µM (inactive) | > 100 µM (inactive) | > 100 µM (inactive) | > 100 µM (inactive) | > 100 µM (inactive) | > 100 µM (inactive) | > 100 µM (inactive) | > 100 µM (inactive) | > 100 µM (inactive) | > 100 µM (inactive) | > 100 µM (inactive) | > 100 µM (inactive) | > 100 µM (inactive) | > 92.5 µM (inactive) | > 100 µM (inactive) | > 100 µM (inactive) | > 6.89 µM (inactive) | > 100 µM (inactive) | > 100 µM (inactive) |
| COc1ccc(CNc2nc(NCc3ccc(OC)cc3)nc(Nc3ccccc3)n2)cc1 | 14.2 µM (inactive) | 7.16 µM (inactive) | 2.58 µM (inactive) | 37.7 µM (inactive) | 12.4 µM (inactive) | > 100 µM (inactive) | 6.46 µM (inactive) | 13.1 µM (inactive) | 9.71 µM (inactive) | 39.1 µM (inactive) | 8.87 µM (inactive) | 49.7 µM (inactive) | 35.1 µM (inactive) | 5.69 µM (inactive) | 5 µM (inactive) | > 100 µM (inactive) | 21.5 µM (inactive) | 3.01 µM (inactive) | 24.1 µM (inactive) | > 100 µM (inactive) |
| COc1cc(C2c3cc4c(cc3OC(C)(N3CCCC3)C2C)OCO4)cc(OC)c1OC (stereo not given) | 0.229 µM (active) | 0.473 µM (active) | 0.223 µM (active) | 0.327 µM (active) | 0.883 µM (active) | 1.26 µM (inactive) | 0.153 µM (active) | 0.815 µM (active) | 0.435 µM (active) | 0.302 µM (active) | 9.48 µM (inactive) | 0.428 µM (active) | 0.437 µM (active) | 0.34 µM (active) | 0.197 µM (active) | 74.5 µM (inactive) | 0.524 µM (active) | 0.3 µM (active) | 0.551 µM (active) | 0.405 µM (active) |
| Cc1cc(=O)oc2cc3oc(N(C)c4ccccc4)nc(=O)c3cc12 | > 100 µM (inactive) | > 100 µM (inactive) | > 100 µM (inactive) | > 100 µM (inactive) | > 100 µM (inactive) | > 100 µM (inactive) | > 100 µM (inactive) | > 100 µM (inactive) | > 100 µM (inactive) | > 100 µM (inactive) | > 100 µM (inactive) | > 100 µM (inactive) | > 100 µM (inactive) | > 100 µM (inactive) | > 100 µM (inactive) | > 100 µM (inactive) | > 100 µM (inactive) | > 100 µM (inactive) | > 100 µM (inactive) | > 100 µM (inactive) |
| COc1ccc(C(=O)/C=C/c2ccc(Oc3cc(C(=O)/C=C/c4ccc(O)cc4)c(O)cc3OC)cc2)c(O)c1 [RHUSCHALCONE I] | 2.19 µM (inactive) | 4.33 µM (inactive) | 6.41 µM (inactive) | 5.96 µM (inactive) | 2.72 µM (inactive) | 3.59 µM (inactive) | 4.72 µM (inactive) | 2.9 µM (inactive) | 2.59 µM (inactive) | 1.67 µM (inactive) | 3.23 µM (inactive) | 2.51 µM (inactive) | 25.5 µM (inactive) | 4.84 µM (inactive) | 3.66 µM (inactive) | 4.99 µM (inactive) | 4.06 µM (inactive) | 2.52 µM (inactive) | 3.63 µM (inactive) | 8.57 µM (inactive) |
| COc1ccc(-n2c(SC(CN3CCOCC3)CN3CCCC3=O)nc3ccccc3c2=O)cc1 (stereo not given) | 58.7 µM (inactive) | > 100 µM (inactive) | > 100 µM (inactive) | > 100 µM (inactive) | 96.4 µM (inactive) | 35.6 µM (inactive) | > 100 µM (inactive) | 46 µM (inactive) | > 100 µM (inactive) | > 100 µM (inactive) | 98.6 µM (inactive) | > 100 µM (inactive) | > 100 µM (inactive) | > 100 µM (inactive) | > 100 µM (inactive) | > 100 µM (inactive) | 95.1 µM (inactive) | 90.8 µM (inactive) | > 100 µM (inactive) | > 100 µM (inactive) |
| C1CCC2C(C1)CCCC2NC1=NCCO1 (stereo not given) | > 100 µM (inactive) | > 100 µM (inactive) | > 100 µM (inactive) | > 100 µM (inactive) | > 100 µM (inactive) | > 100 µM (inactive) | > 100 µM (inactive) | > 100 µM (inactive) | > 100 µM (inactive) | > 100 µM (inactive) | > 100 µM (inactive) | > 100 µM (inactive) | 69.3 µM (inactive) | 93.5 µM (inactive) | > 100 µM (inactive) | > 100 µM (inactive) | > 100 µM (inactive) | > 100 µM (inactive) | > 100 µM (inactive) | > 100 µM (inactive) |
| CC(=O)CC[N+](C)(C)C | 62.8 µM (inactive) | 65.8 µM (inactive) | 83.6 µM (inactive) | 88.5 µM (inactive) | 29.2 µM (inactive) | 42 µM (inactive) | 4.06 µM (inactive) | 17 µM (inactive) | 37.3 µM (inactive) | 69.2 µM (inactive) | 14.8 µM (inactive) | 23.6 µM (inactive) | 25.8 µM (inactive) | 76.9 µM (inactive) | 3.21 µM (inactive) | 29.2 µM (inactive) | 27.6 µM (inactive) | 6.15 µM (inactive) | 21.3 µM (inactive) | 36.4 µM (inactive) |
| COc1ccc(C2c3cc4c(cc3OC3(OC)COC(=O)C23)OCO4)c(OC)c1 (stereo not given) | 4.62 µM (inactive) | 7.14 µM (inactive) | 12.8 µM (inactive) | 31.9 µM (inactive) | 29.3 µM (inactive) | 14.9 µM (inactive) | 6.43 µM (inactive) | 34.8 µM (inactive) | 10.5 µM (inactive) | 39.5 µM (inactive) | 19.1 µM (inactive) | 11.3 µM (inactive) | 6.24 µM (inactive) | 17.7 µM (inactive) | 5.08 µM (inactive) | 29.4 µM (inactive) | 32.6 µM (inactive) | 4.91 µM (inactive) | 27.1 µM (inactive) | 12.6 µM (inactive) |
| CC(C)CC(NC(=O)C(Cc1ccccc1)NC(=O)C(COCc1ccccc1)NC(=O)OC(C)(C)C)C(=O)OCc1ccccc1 (stereo not drawn) (Boc-Ser(Bn)-Phe-Leu-OBn; configuration not given here) | 33.9 µM (inactive) | 11.9 µM (inactive) | 21.8 µM (inactive) | 9.57 µM (inactive) | 18.5 µM (inactive) | 39.5 µM (inactive) | 22.1 µM (inactive) | 17.9 µM (inactive) | 17.4 µM (inactive) | 95.9 µM (inactive) | 42.7 µM (inactive) | 17.1 µM (inactive) | 86.7 µM (inactive) | 22.3 µM (inactive) | 9.57 µM (inactive) | > 100 µM (inactive) | 34 µM (inactive) | 13.9 µM (inactive) | 27.1 µM (inactive) | 56.6 µM (inactive) |
